Key:
[1] = background literature, in words; cited from earlier work
[2] = test system: Streptococcus pneumoniae Type III; test: Healing effect on test infection in mice, ED50 (Reference Example 1); assay type: in vivo; details: oral, 0.3% CMC, just after i.p. inoculation; Probit method, survived animals on the 7th day
Source text: Comparison of healing effects of acetylspiramycin and 3, 3", 4"-tri-O-acetylspiramycin I on test infection in mice
Animal : ddY-strain male mice, 19±lg, one group consisting of ten mice.
Test bacterium : Streptococcus pneumoniae Type III. Inoculation rate : 1.1×10^2 cfu/mouse.
The predetermined amount of the precultured test bacteria was inoculated via i.p..
Medicament administration : Each of the medicaments was suspended in 0.3% CMC, and orally administered just after the inoculation of bacteria.

[3] = test system: Staphylococcus aureus KB199; test: MIC against Staphylococcus aureus KB199 (B); assay type: cell-based; details: Heart infusion agar (pH 7.0)
Source text: (§1) The minimum inhibitory concentration (MIC) of Compound (I) is shown in Table 4 in comparison with that of spiramycin I.
(§2) Minimum inhibitory concentration (MIC, μ g/ml)
(§3) Remark: medium used: Heart infusion agar (pH 7.0)
B: Staphylococcus aureus KB199

Bacillus cereus KB143 = test: MIC against Bacillus cereus KB143 (D); assay type: cell-based; details: Heart infusion agar (pH 7.0)
Source text: as §1, §2, §3
D: Bacillus cereus KB143

[4] = test system: Streptococcus pneumoniae Type III; test: Infection-healing effect, mice protection test (Test Example); assay type: in vivo; details: for Number of survived mice out of 10 mice: 60 mg/kg in 0.3% CMC, orally just after i.p. inoculation (1.1×10^2 cfu/mouse), 7th day; for therapeutic effect in an infection-healing test in mice: Streptococcus pneumoniae Type III, compared with acetylspiramycin and 3, 3", 4"-tri-O-acetylspiramycin I
Experimental: A test example of the therapeutic effect of Compound (I) in experimental test mice protection test will be given below:
Animal: ddY-strain male mice, 19±lg, one group consisting of ten mice.
Test bacterium: Streptococcus pneumoniae Type III, Inoculation rate: 1.1×10^2 cfu/mouse.
The predetermined amount of the precultured test bacteria was inoculated via i.p.
Medicament administration: 60 mg/kg of each of the medicaments was suspended in 0.3% CMC, and orally administered just after the inoculation of bacteria.

[5] = test system: Klebsiella pneumoniae KB214; test: MIC against Klebsiella pneumoniae KB214 (G); assay type: cell-based; details: Heart infusion agar (pH 7.0)
Source text: as §1, §2, §3
G: Klebsiella pneumoniae KB214

Micrococcus ruteus KB212 = test: MIC against Micrococcus ruteus KB212 (E); assay type: cell-based; details: Heart infusion agar (pH 7.0)
Source text: as §1, §2, §3
E: Micrococcus ruteus KB212

[6] = test system: Staphylococcus aureus KB210; test: MIC against Staphylococcus aureus KB210 (A); assay type: cell-based; details: Heart infusion agar (pH 7.0)
Source text: as §1, §2, §3
A: Staphylococcus aureus KB210

Bacillus subtilis KB211 = test: MIC against Bacillus subtilis KB211 (C); assay type: cell-based; details: Heart infusion agar (pH 7.0)
Source text: as §1, §2, §3
C: Bacillus subtilis KB211

Escherichia coli KB213 = test: MIC against Escherichia coli KB213 (F); assay type: cell-based; details: Heart infusion agar (pH 7.0)
Source text: as §1, §2, §3
F: Escherichia coli KB213

Compound	in vivo activity compared with starting compounds [1]	ED50 [2] [mg/kg]	Minimum inhibitory concentration (MIC) [3] [μ g/ml]	Minimum inhibitory concentration (MIC) (Bacillus cereus KB143) [μ g/ml]	Number of survived mice out of 10 mice [4]	Minimum inhibitory concentration (MIC) [5] [μ g/ml]	Minimum inhibitory concentration (MIC) (Micrococcus ruteus KB212) [μ g/ml]	Minimum inhibitory concentration (MIC) [6] [μ g/ml]	Minimum inhibitory concentration (MIC) (Bacillus subtilis KB211) [μ g/ml]	Minimum inhibitory concentration (MIC) (Escherichia coli KB213) [μ g/ml]	therapeutic effect in an infection-healing test in mice [4]
3", 9-di-O-acetyl compound of midecamycin	better in vivo activity										
CCCC(=O)O[C@H]1[C@H](C)O[C@@H](O[C@H]2[C@H](N(C)C)[C@@H](O)[C@H](O[C@H]3[C@@H](CC=O)C[C@@H](C)[C@@H](O)/C=C/C=C/C[C@@H](C)OC(=O)C[C@@H](O)[C@@H]3OC)O[C@@H]2C)C[C@@]1(C)OC(=O)CC [3"-O-propionyl compound of leucomycin A5]	better in vivo activity										
COC1C(OC(C)=O)CC(=O)OC(C)CC=CC=CC(OC2CCC(N(C)C)C(C)O2)C(C)CC(CC=O)C1OC1OC(C)C(OC2CC(C)(OC(C)=O)C(OC(C)=O)C(C)O2)C(N(C)C)C1O (stereo not drawn) [3, 3", 4"-tri-O-acetylspiramycin, 3, 3", 4"-tri-O-acetylspiramycin I]		69.5									
CCC(=O)OC1C(C)OC(OC2C(C)OC(OC3C(CC=O)CC(C)C(OC4CCC(N(C)C)C(C)O4)C=CC=CCC(C)OC(=O)CC(OC(C)=O)C3OC)C(O)C2N(C)C)CC1(C)OC(C)=O (stereo not drawn) [Compound 1, 3, 3"-di-O-acetyl-4"-O-propionylspiramycin I]			> 100	3.12	5 mice out of 10 mice	> 100	< 0.1	3.12	1.56	> 100	
CCCC(=O)OC1C(C)OC(OC2C(C)OC(OC3C(CC=O)CC(C)C(OC4CCC(N(C)C)C(C)O4)C=CC=CCC(C)OC(=O)CC(OC(C)=O)C3OC)C(O)C2N(C)C)CC1(C)OC(C)=O (stereo not drawn) [Compound 2, 3, 3"-di-O-acetyl-4"-O-butyrylspiramycin I]			> 100	1.56	5 mice out of 10 mice	100	< 0.1	1.56	1.56	> 100	
CCC(=O)OC1CC(=O)OC(C)CC=CC=CC(OC2CCC(N(C)C)C(C)O2)C(C)CC(CC=O)C(OC2OC(C)C(OC3CC(C)(OC(=O)CC)C(OC(C)=O)C(C)O3)C(N(C)C)C2O)C1OC (stereo not drawn) [Compound 3, 3,3"-di-O-propionyl-4"-O-acetylspiramycin I]			> 100	3.12	5 mice out of 10 mice	> 100	< 0.1	3.12	3.12	> 100	
CCC(=O)OC1CC(=O)OC(C)CC=CC=CC(OC2CCC(N(C)C)C(C)O2)C(C)CC(CC=O)C(OC2OC(C)C(OC3CC(C)(OC(=O)CC)C(OC(=O)CC)C(C)O3)C(N(C)C)C2O)C1OC (stereo not drawn) [Compound 4, 3, 3", 4"-tri-O-propionylspiramycin I]			> 100	1.56	10 mice out of 10 mice	> 100	< 0.1	1.56	1.56	> 100	more excellent therapeutic effect than acetylspiramycin and 3, 3", 4"-tri-O-acetylspiramycin I
CCC(=O)OC1(C)CC(OC2C(C)OC(OC3C(CC=O)CC(C)C(OC4CCC(N(C)C)C(C)O4)C=CC=CCC(C)OC(=O)CC(OC(C)=O)C3OC)C(O)C2N(C)C)OC(C)C1OC(C)=O (stereo not drawn) [Compound 5, 3, 4"-di-O-acetyl-3"-O-propionylspiramycin I]			> 100	1.56	3 mice out of 10 mice	> 100	< 0.1	3.12	3.12	> 100	
CCCC(=O)OC1(C)CC(OC2C(C)OC(OC3C(CC=O)CC(C)C(OC4CCC(N(C)C)C(C)O4)C=CC=CCC(C)OC(=O)CC(OC(C)=O)C3OC)C(O)C2N(C)C)OC(C)C1OC(C)=O (stereo not drawn) [Compound 6, 3, 4"-di-O-acetyl-3"-O-butyrylspiramycin I]			> 100	1.56	10 mice out of 10 mice	> 100	0.2	6.25	3.12	> 100	more excellent therapeutic effect than acetylspiramycin and 3, 3", 4"-tri-O-acetylspiramycin I
CCCC(=O)OC1(C)CC(OC2C(C)OC(OC3C(CC=O)CC(C)C(OC4CCC(N(C)C)C(C)O4)C=CC=CCC(C)OC(=O)CC(OC(=O)CC)C3OC)C(O)C2N(C)C)OC(C)C1OC(=O)CC (stereo not drawn) [Compound 7, 3, 4"-di-O-propionyl-3"-O-butyrylspiramycin I]			> 100	1.56	5 mice out of 10 mice	> 100	< 0.1	3.12	1.56	> 100	
CCC(=O)OC1CC(=O)OC(C)CC=CC=CC(OC2CCC(N(C)C)C(C)O2)C(C)CC(CC=O)C(OC2OC(C)C(OC3CC(C)(OC(C)=O)C(OC(=O)CC)C(C)O3)C(N(C)C)C2O)C1OC (stereo not drawn) [Compound 8, 3"-O-acetyl-3, 4"-di-O-propionylspiramycin I]			> 100	3.12	10 mice out of 10 mice	> 100	0.2	3.12	3.12	> 100	more excellent therapeutic effect than acetylspiramycin and 3, 3", 4"-tri-O-acetylspiramycin I
CCCC(=O)OC1C(C)OC(OC2C(C)OC(OC3C(CC=O)CC(C)C(OC4CCC(N(C)C)C(C)O4)C=CC=CCC(C)OC(=O)CC(OC(=O)CC)C3OC)C(O)C2N(C)C)CC1(C)OC(=O)CC (stereo not drawn) [Compound 9, 3, 3"-di-O-propionyl-4"-O-butyrylspiramycin I]			> 100	3.12	8 mice out of 10 mice	> 100	0.2	3.12	3.12	> 100	more excellent therapeutic effect than acetylspiramycin and 3, 3", 4"-tri-O-acetylspiramycin I
CO[C@@H]1[C@@H](O[C@@H]2O[C@H](C)[C@@H](O[C@H]3C[C@@](C)(O)[C@@H](O)[C@H](C)O3)[C@H](N(C)C)[C@H]2O)[C@@H](CC=O)C[C@@H](C)[C@@H](O[C@H]2CC[C@H](N(C)C)[C@@H](C)O2)/C=C/C=C/C[C@@H](C)OC(=O)C[C@H]1O [SPMI, Spiramycin I]			> 100	1.56	0 mice out of 10 mice	100	< 0.1	1.56	0.78	100	
